Experimental data from patent US20120046302A1, “METHODS OF TREATING CNS DISORDERS” (priority 2008, published 2012).
Counter-ions that a name gives are not always drawn.

Legend:
[1] = test system: adrenergic receptor sites; settings: background; cited from earlier work
histamine H1 = histamine H1 (Homo sapiens, UniProt P35367); settings: background; cited from earlier work
5-HT2C = molecular target: T1, 5-HT2C (Homo sapiens, UniProt P28335); settings: background; cited from earlier work
T1 sequence (P28335 33-458): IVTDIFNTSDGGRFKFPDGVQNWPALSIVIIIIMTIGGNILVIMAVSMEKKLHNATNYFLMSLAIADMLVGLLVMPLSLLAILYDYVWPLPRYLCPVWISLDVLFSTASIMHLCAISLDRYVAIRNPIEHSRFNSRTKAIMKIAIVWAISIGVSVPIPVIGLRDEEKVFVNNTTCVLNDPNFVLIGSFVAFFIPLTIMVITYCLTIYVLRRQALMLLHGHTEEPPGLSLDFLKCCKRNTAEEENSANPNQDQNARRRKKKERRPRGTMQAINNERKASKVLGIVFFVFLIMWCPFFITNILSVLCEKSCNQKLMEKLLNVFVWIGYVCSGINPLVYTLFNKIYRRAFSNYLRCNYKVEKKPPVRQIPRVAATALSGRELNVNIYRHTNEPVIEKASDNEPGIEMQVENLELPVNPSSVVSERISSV

NMDA receptor = settings: noncompetitive NMDA receptor antagonists; background; cited from earlier work
[2] = test system: patients with bipolar I disorder experiencing a manic or mixed episode; assay: Multicenter, open-label study of memantine hydrochloride in acute treatment of hospitalized patients with bipolar I disorder (Example 1); assay type: in vivo, human; settings: for MRS Total Score, Change at Day 21 (LOCF), Mean ± SEM / YMRS Total Score, Change at Day 21 (LOCF), Mean ± SEM / MRS Total Score, Change at Day 21 (OC), Mean ± SEM / YMRS Total Score, Change at Day 21 (OC), Mean ± SEM / CGI-I Rating, Day 21, Mean ± SEM / CGI-S Rating, Change at Day 21, Mean ± SEM / MADRS Total Score, Change at Day 21, Mean ± SEM / PANSS Total Score, Change at Day 21, Mean ± SEM / PANSS-EC Score, Change at Day 21, Mean ± SEM: 21 days; for MRS Total Score, Change at Day 21 (LOCF), Mean ± SEM / YMRS Total Score, Change at Day 21 (LOCF), Mean ± SEM / CGI-I Rating, Day 21, Mean ± SEM / CGI-S Rating, Change at Day 21, Mean ± SEM / MADRS Total Score, Change at Day 21, Mean ± SEM / PANSS Total Score, Change at Day 21, Mean ± SEM / PANSS-EC Score, Change at Day 21, Mean ± SEM / MRS Response, % of patients / MRS Response, n of patients / YMRS Response, % of patients / YMRS Response, n of patients: ITT; for MRS Total Score, Change at Day 21 (OC), Mean ± SEM / YMRS Total Score, Change at Day 21 (OC), Mean ± SEM: observed cases; for CGI-I Rating, Day 21, Mean ± SEM / CGI-S Rating, Change at Day 21, Mean ± SEM / MADRS Total Score, Change at Day 21, Mean ± SEM / PANSS Total Score, Change at Day 21, Mean ± SEM / PANSS-EC Score, Change at Day 21, Mean ± SEM / MRS Response, % of patients / MRS Response, n of patients / YMRS Response, % of patients / YMRS Response, n of patients: LOCF; for MRS Response, % of patients / MRS Response, n of patients / YMRS Response, % of patients / YMRS Response, n of patients: Day 21, response = ≧50% reduction in total score from baseline
Text: The entrance criteria for the patients included: Hospitalized adult inpatients, with bipolar I disorder by DSM-IV-TR criteria • Manic or mixed episode: ≧20 on the Young Mania Rating Scale (YMRS), with and without psychotic features; • Diagnosis based on clinical evaluation and confirmed using the Structured Clinical Interview for DSM Disorders. The following comorbid psychiatric diagnoses were allowed to enroll: Attention deficit hyperactivity disorder [ADHD], conduct disorder, obsessive-compulsive disorder, anxiety disorders, and substance abuse. Additional psychotropic medications were not allowed. Patients were assigned to 21-days of treatment in one of three groups: Group 1, 20 mg memantine hydrochloride per day (range 20-30 mg memantine per day); Group 2, 30 mg memantine hydrochloride per day (range 20-40 mg memantine per day); Group 3, 40 mg memantine hydrochloride per day (range 30-50 mg memantine per day). […] Dose modification was continued to study completion or early termination. Efficacy measures included the Young Mania Rating Scale (YMRS) and the Mania Rating Scale (MRS) (≧50% reduction in total score from baseline). The change from baseline was also assessed using the Positive and Negative Syndrome Scale (PANSS) in patients with psychiatric symptoms, Positive and Negative Syndrome Scale-Excited Component (PANSS-EC), Clinical Global Impression Severity (CGI-S) and Improvement (CGI-I) scores, and the change from baseline in the Montgomery Asberg Depression Rating Scale (MADRS). […] The mean duration of treatment was 16.1 days (Group I), 14.7 days (Group 2) and 17.3 days (Group 3).

[3] = test system: ICV ouabain-induced motoric hyperactivity; settings: ouabain treated (ICV) versus sham 53.1±SD 50.0; El-Mallakh et al. 2003; cited from earlier work
[4] = Group 1: 20 mg per day (range 20-30 mg), n=12
[5] = Group 1: 20 mg per day (range 20-30 mg), n=6
[6] = Group 2: 30 mg per day (range 20-40 mg), n=11
[7] = Group 2: 30 mg per day (range 20-40 mg), n=6
[8] = Group 3: 40 mg per day (range 30-50 mg), n=10
[9] = Group 3: 40 mg per day (range 30-50 mg), n=8

Chain of histamine H1 (P35367 whole entry): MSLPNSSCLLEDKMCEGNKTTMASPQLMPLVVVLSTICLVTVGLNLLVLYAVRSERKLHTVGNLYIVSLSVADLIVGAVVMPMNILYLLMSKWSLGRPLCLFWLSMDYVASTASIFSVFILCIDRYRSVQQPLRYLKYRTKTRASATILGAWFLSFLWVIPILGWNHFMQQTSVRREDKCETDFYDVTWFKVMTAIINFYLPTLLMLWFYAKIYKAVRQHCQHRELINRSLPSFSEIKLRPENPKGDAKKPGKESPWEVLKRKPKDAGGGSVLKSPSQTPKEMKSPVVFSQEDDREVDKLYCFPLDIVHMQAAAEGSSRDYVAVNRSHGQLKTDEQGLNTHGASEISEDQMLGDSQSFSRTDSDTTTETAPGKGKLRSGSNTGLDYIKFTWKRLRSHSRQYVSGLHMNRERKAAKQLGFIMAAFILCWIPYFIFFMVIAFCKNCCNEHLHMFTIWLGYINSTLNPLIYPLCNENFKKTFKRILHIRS

In the case of `CN(C)C(=O)N[C@H]1CC[C@H](CCN2CCN(c3cccc(Cl)c3Cl)CC2)CC1` [Cariprazine hydrochloride, trans-1-{4-[2-[4-(2,3-dichlorophenyl)-piperazin-1-yl]-ethyl]-cyclohexyl}-3,3-dimethyl-urea hydrochloride], the “Potency at adrenergic receptor sites (in words)” value [1] is given as “low potency”, the “Potency at histamine H1 receptor site (in words)” value (histamine H1) is given as “low potency” and the “Potency at 5-HT2C receptor site (in words)” value (5-HT2C) is given as “low potency”.

For `CC12CC3CC(C)(C1)CC(N)(C3)C2` [Memantine, 1-amino-3,5-dimethyl adamantane], the “Affinity for the NMDA receptor (in words)” value (NMDA receptor) is listed as “moderate affinity”.

For `CC12CC3CC(C)(C1)CC(N)(C3)C2` [memantine hydrochloride], the “MRS Total Score, Change at Day 21 (LOCF), Mean ± SEM” value [2, 4] was −9.8 ± 2.2, the “YMRS Total Score, Change at Day 21 (LOCF), Mean ± SEM” value [2, 4] was −9.5 ± 2.8 and the “MRS Total Score, Change at Day 21 (OC), Mean ± SEM” value [2, 5] was −15.3 ± 1.7. For the same molecule, the “YMRS Total Score, Change at Day 21 (OC), Mean ± SEM” value [2, 5] was −17.0 ± 1.9, the “CGI-I Rating, Day 21, Mean ± SEM” value ([2]; Group 1: 20 mg per day, n=12) was 3.3 ± 0.5 and the “CGI-S Rating, Change at Day 21, Mean ± SEM” value ([2]; Group 1: 20 mg per day, n=12) was −0.8 ± 0.3. For the same molecule, the “MADRS Total Score, Change at Day 21, Mean ± SEM” value ([2]; Group 1: 20 mg per day, n=12) was −3.4 ± 1.8, the “PANSS Total Score, Change at Day 21, Mean ± SEM” value ([2]; Group 1: 20 mg per day, n=12) was −5.1 ± 3.9 and the “PANSS-EC Score, Change at Day 21, Mean ± SEM” value ([2]; Group 1: 20 mg per day, n=12) was −0.7 ± 1.5. The “MRS Response, % of patients” value ([2]; Group 1: 20 mg per day, n=12) was 50.0%, the “MRS Response, n of patients” value ([2]; Group 1: 20 mg per day, n=12) was 6 n and the “YMRS Response, % of patients” value ([2]; Group 1: 20 mg per day, n=12) was 50.0%. The “YMRS Response, n of patients” value ([2]; Group 1: 20 mg per day, n=12) was 6 n, the “MRS Total Score, Change at Day 21 (LOCF), Mean ± SEM” value [2, 6] was −7.4 ± 2.6 and the “YMRS Total Score, Change at Day 21 (LOCF), Mean ± SEM” value [2, 6] was −6.4 ± 3.8. The “MRS Total Score, Change at Day 21 (OC), Mean ± SEM” value [2, 7] was −13.0 ± 2.1, the “YMRS Total Score, Change at Day 21 (OC), Mean ± SEM” value [2, 7] was −15.5 ± 1.5 and the “CGI-I Rating, Day 21, Mean ± SEM” value ([2]; Group 2: 30 mg per day, n=11) was 3.6 ± 0.5. The “CGI-S Rating, Change at Day 21, Mean ± SEM” value ([2]; Group 2: 30 mg per day, n=11) was −0.7 ± 0.4, the “MADRS Total Score, Change at Day 21, Mean ± SEM” value ([2]; Group 2: 30 mg per day, n=11) was 0.0 ± 2.7 and the “PANSS Total Score, Change at Day 21, Mean ± SEM” value ([2]; Group 2: 30 mg per day, n=11) was −1.5 ± 5.8. For the same molecule, the “PANSS-EC Score, Change at Day 21, Mean ± SEM” value ([2]; Group 2: 30 mg per day, n=11) was −0.5 ± 1.8, the “MRS Response, % of patients” value ([2]; Group 2: 30 mg per day, n=11) was 27.3% and the “MRS Response, n of patients” value ([2]; Group 2: 30 mg per day, n=11) was 3 n. The “YMRS Response, % of patients” value ([2]; Group 2: 30 mg per day, n=11) was 45.5%, the “YMRS Response, n of patients” value ([2]; Group 2: 30 mg per day, n=11) was 5 n and the “MRS Total Score, Change at Day 21 (LOCF), Mean ± SEM” value [2, 8] was −7.2 ± 2.0. The “YMRS Total Score, Change at Day 21 (LOCF), Mean ± SEM” value [2, 8] was −7.9 ± 2.4, the “MRS Total Score, Change at Day 21 (OC), Mean ± SEM” value [2, 9] was −9.3 ± 1.8 and the “YMRS Total Score, Change at Day 21 (OC), Mean ± SEM” value [2, 9] was −10 ± 2.3. For the same molecule, the “CGI-I Rating, Day 21, Mean ± SEM” value ([2]; Group 3: 40 mg per day, n=10) was 2.9 ± 0.5, the “CGI-S Rating, Change at Day 21, Mean ± SEM” value ([2]; Group 3: 40 mg per day, n=10) was −0.6 ± 0.3 and the “MADRS Total Score, Change at Day 21, Mean ± SEM” value ([2]; Group 3: 40 mg per day, n=10) was −3.3 ± 1.7. For the same molecule, the “PANSS Total Score, Change at Day 21, Mean ± SEM” value ([2]; Group 3: 40 mg per day, n=10) was −7.7 ± 3.8, the “PANSS-EC Score, Change at Day 21, Mean ± SEM” value ([2]; Group 3: 40 mg per day, n=10) was −0.7 ± 1.4 and the “MRS Response, % of patients” value ([2]; Group 3: 40 mg per day, n=10) was 10.0%. For the same molecule, the “MRS Response, n of patients” value ([2]; Group 3: 40 mg per day, n=10) was 1 n, the “YMRS Response, % of patients” value ([2]; Group 3: 40 mg per day, n=10) was 30.0% and the “YMRS Response, n of patients” value ([2]; Group 3: 40 mg per day, n=10) was 3 n. The “Effectiveness in the treatment of acute mania associated with bipolar disorder (in words)” value ([2]; overall conclusion of Example 1) was “surprisingly effective”.

For `CC1(C)CC(C)(C)CC(C)(N)C1` [neramexane, 1-amino-1,3,3,5,5-pentamethylcyclohexane], the “Affinity for the NMDA receptor (in words)” value (NMDA receptor) is given as “moderate affinity”.

In the case of `C[C@@H]1O[C@@H](O[C@H]2C[C@@H](O)[C@]3(CO)[C@H]4[C@H](O)C[C@]5(C)[C@@H](C6=CC(=O)OC6)CC[C@]5(O)[C@@H]4CC[C@]3(O)C2)[C@H](O)[C@H](O)[C@H]1O` [ouabain], the “Open field exploratory activity” value [3] is given as 258.7±316.6 squares traversed.
